Assay: log P by HPLC on a reversed-phase column (C18), EEC Directive 79/831 Annex V.A8
Format: physicochemical
Settings: HCOOH
Procedure: The stated log P values were determined in accordance with EEC Directive 79/831 Annex V.A8 by HPLC (High Performance Liquid Chromatography) using a reversed-phase column (C18).

Row | Structure (SMILES) | log P (HCOOH)
1 | COC(=O)CNC(=O)c1ccc(-n2nc(C(F)(F)F)c(-c3cc(Cl)cc(Cl)c3)c2N)cc1C [I-A-Q2-030] | I-A-Q2-030: log P (HCOOH): 3.68
2 | Cc1cc(C)cc(-c2c(C(F)(F)F)nn(-c3ccc(C(=O)NC(C)C(F)(F)F)cc3)c2N)c1 (stereo not shown) [I-A-Q2-178] | I-A-Q2-178: log P (HCOOH): 3.89
3 | Nc1c(-c2ccc(Cl)cc2)c(-c2ccccc2)nn1-c1ccc(C(=O)NCc2ncccn2)cc1 [I-A-Q2-076] | I-A-Q2-076: log P (HCOOH): 2.89
4 | Cc1cc(-n2nc(C(F)(F)F)c(-c3cc(Cl)cc(Cl)c3)c2N)ccc1C(=O)NCC[S+](C)[O-] (stereo not shown) [I-A-Q2-273] | I-A-Q2-273: log P (HCOOH): 2.98
5 | CCCC(NC(=O)c1ccc(-n2nc(C(F)(F)F)c(-c3cc(Cl)cc(Cl)c3)c2N)cc1C)C(F)(F)F (stereo not shown) [I-A-Q2-201] | I-A-Q2-201: log P (HCOOH): 5.11
6 | Cc1nc(CNC(=O)c2ccc(-n3nc(C(F)(F)F)c(-c4cc(Cl)cc(Cl)c4)c3N)cc2C)c(C)o1 [I-A-Q2-251] | I-A-Q2-251: log P (HCOOH): 3.84
7 | Cc1cc(-n2nc(C(F)(F)F)c(-c3cc(Cl)cc(Cl)c3)c2N)ccc1C(=O)NCc1ncccn1 [I-A-Q2-018] | I-A-Q2-018: log P (HCOOH): 3.56
8 | C[S+]([O-])c1cc(-n2nc(C(F)(F)F)c(-c3cc(Cl)cc(Cl)c3)c2N)ccc1C(=O)NCc1ccccn1 (stereo not shown) [I-A-Q2-424] | I-A-Q2-424: log P (HCOOH): 2.75
9 | Cc1cc(-n2nc(C(F)(F)F)cc2N)ccc1C(=O)NCc1ccccn1 [XI-A-089] | XI-A-089: log P (HCOOH): 2.45
10 | Cc1cc(-n2nc(C)c(-c3ccc(F)cc3F)c2N)ccc1C(=O)NCC(F)(F)C(F)F [I-A-Q2-329] | I-A-Q2-329: log P (HCOOH): 2.59
11 | Cc1cc(-n2nc(C(F)(F)F)c(-c3cc(Cl)cc(Cl)c3)c2N)ccc1C(=O)NC(C)c1cccnc1 (stereo not shown) [I-A-Q2-231] | I-A-Q2-231: log P (HCOOH): 2.69
12 | Cc1cc(-n2nc(C)c(-c3ccc(Cl)cc3)c2N)ccc1C(=O)NCC(F)(F)C(F)F [I-A-Q2-325] | I-A-Q2-325: log P (HCOOH): 2.85
13 | Nc1c(-c2ccc(Cl)cc2)c(C(F)(F)F)nn1-c1ccc(C(=O)NCC(F)F)cc1 [I-A-Q2-164] | I-A-Q2-164: log P (HCOOH): 3.27
14 | Nc1c(-c2cc(Cl)cc(Cl)c2)c(C(F)(F)F)nn1-c1ccc(C(=O)NCC(F)F)cc1 [I-A-Q2-140] | I-A-Q2-140: log P (HCOOH): 3.93
15 | Nc1c(-c2cc(Cl)cc(Cl)c2)c(C(F)(F)F)nn1-c1ccc(C(=O)NCC2CC2)cc1 [I-A-Q2-149] | I-A-Q2-149: log P (HCOOH): 4.15
16 | Cc1cc(-n2nc(C)c(-c3ccc(F)cc3)c2N)ccc1C(=O)NCC(F)(F)C(F)F [I-A-Q2-326] | I-A-Q2-326: log P (HCOOH): 2.51
17 | Cc1cc(-n2nc(C(F)(F)F)c(-c3cc(Cl)cc(Cl)c3)c2N)ccc1C(=O)NC(C)(C)C [I-A-Q2-221] | I-A-Q2-221: log P (HCOOH): 4.51
18 | Cc1cc(-n2nc(C(F)(F)F)c(Cl)c2N)ccc1C(=O)NCc1ccccn1 [XI-A-091] | XI-A-091: log P (HCOOH): 1.94
19 | Cc1cc(-n2nc(C(F)(F)F)c(-c3cc(Cl)cc(Cl)c3)c2N)ccc1C(=O)NC(C)c1ccc(Cl)cc1 (stereo not shown) [I-A-Q2-213] | I-A-Q2-213: log P (HCOOH): 4.89
20 | Cc1cc(-n2nc(C)c(-c3ccc(F)cc3Cl)c2N)ccc1C(=O)NCc1ccccn1 [I-A-Q2-368] | I-A-Q2-368: log P (HCOOH): 1.79
21 | CC(C)NC(=O)c1ccc(-n2nc(C(F)(F)F)c(-c3cc(Cl)cc(Cl)c3)c2N)nc1 [I-A-Q2-097] | I-A-Q2-097: log P (HCOOH): 4.64
22 | Cc1cc(-n2nc(C(F)(F)F)c(-c3cc(Cl)cc(Cl)c3)c2N)ccc1C(=O)NC(c1cccc(C(F)(F)F)c1)C(F)(F)F (stereo not shown) [I-A-Q2-257] | I-A-Q2-257: log P (HCOOH): 5.22
23 | Nc1c(-c2cc(F)cc(Cl)c2)c(C(F)(F)F)nn1-c1ccc(C(=O)NCC(F)(F)F)cc1 [I-A-Q2-086] | I-A-Q2-086: log P (HCOOH): 3.68
24 | Cc1cc(-n2nc(C(F)(F)F)c(-c3cc(Cl)cc(Cl)c3)c2N)ccc1C(=O)NC(C)c1ccccc1 (stereo not shown) [I-A-Q2-016] | I-A-Q2-016: log P (HCOOH): 4.79

Row | Structure (SMILES) | log P (HCOOH)
25 | Cc1cc(-n2nc(C(F)(F)Oc3cccc(Cl)c3)c(-c3cc(Cl)cc(C(F)(F)F)c3)c2N)ccc1C(=O)NCC(F)(F)C(F)F [I-A-Q2-297] | I-A-Q2-297: log P (HCOOH): 4.95
26 | Nc1c(-c2cccc(Cl)c2)c(C(F)(F)F)nn1-c1ccc(C(=O)NC2CCCCC2)cc1 [I-A-Q2-093] | I-A-Q2-093: log P (HCOOH): 4.00
27 | Cc1cc(-n2nc(CC(C)C)c(-c3ccc(Cl)cc3)c2N)ccc1C(=O)NCc1ccccn1 [I-A-Q2-382] | I-A-Q2-382: log P (HCOOH): 2.84
28 | Cc1cc(-n2nc(C(F)(F)F)c(-c3cc(Cl)cc(Cl)c3)c2I)ccc1C(=O)NC(C)C(F)(F)F (stereo not shown) [I-A-Q2-026] | I-A-Q2-026: log P (HCOOH): 5.44
29 | Cc1cc(-n2nc(C(F)(F)F)c(-c3cc(Cl)cc(Cl)c3)c2N)ccc1C(=O)NCC(F)F [I-A-Q2-017] | I-A-Q2-017: log P (HCOOH): 4.04
30 | Cc1cc(-n2nc(C(F)(F)F)c(-c3cc(Cl)cc(Cl)c3)c2N)ccc1C(=O)NCC(F)(F)C(F)(F)C(F)(F)F [I-A-Q2-266] | I-A-Q2-266: log P (HCOOH): 4.89
31 | Nc1c(I)c(C(F)(F)F)nn1-c1ccc(C(=O)O)cc1 [XI-A-045] | XI-A-045: log P (HCOOH): 2.47
32 | Cc1cc(-n2nc(C(F)(F)F)c(-c3cc(Cl)cc(Cl)c3)c2N)ccc1C(=O)NCCC(F)=C(F)F [I-A-Q2-061] | I-A-Q2-061: log P (HCOOH): 4.45
33 | CS(=O)(=O)c1cc(-n2nc(C(F)(F)F)c(-c3cc(Cl)cc(Cl)c3)c2N)ccc1C(=O)NCc1ccccn1 [I-A-Q2-425] | I-A-Q2-425: log P (HCOOH): 2.99
34 | Nc1c(-c2ccc(Cl)c(F)c2)c(C(F)(F)F)nn1-c1ccc(C(=O)NC2CC2)cc1 [I-A-Q2-167] | I-A-Q2-167: log P (HCOOH): 3.19
35 | Cc1cc(-n2nc(C(F)(F)F)c(-c3ccc(Cl)cc3Cl)c2N)ccc1C(=O)NCC(F)(F)C(F)F [I-A-Q2-305] | I-A-Q2-305: log P (HCOOH): 3.75
36 | CCOC(=O)c1ccc(-n2nc(C(F)(F)F)c(I)c2N)cc1 [XI-A-044] | XI-A-044: log P (HCOOH): 3.66
37 | Nc1c(-c2cc(Cl)cc(Cl)c2)c(C(F)(F)F)nn1-c1ccc(C(=O)NCCCC(F)=C(F)F)cc1 [I-A-Q2-073] | I-A-Q2-073: log P (HCOOH): 4.35
38 | Cc1cc(-n2nc(C(F)(F)F)c(-c3cc(Cl)cc(Cl)c3)c2N)ccc1C(=O)N(C)CC(F)(F)C(F)F [I-A-Q2-033] | I-A-Q2-033: log P (HCOOH): 4.51
39 | CC(NC(=O)c1ccc(-n2nc(C(F)(F)F)c(-c3cccc(F)c3)c2N)cc1)C(F)(F)F (stereo not shown) [I-A-Q2-182] | I-A-Q2-182: log P (HCOOH): 3.33
40 | Cc1cc(-n2nc(C(F)(F)F)c(-c3cc(Cl)cc(Cl)c3)c2N)ccc1C(=O)NC1CCS(=O)(=O)C1 (stereo not shown) [I-A-Q2-218] | I-A-Q2-218: log P (HCOOH): 3.33
41 | Cc1cc(-n2nc(C(F)(F)F)c(-c3cc(Cl)cc(Cl)c3)c2N)ccc1C(=O)N(C)Cc1ccccn1 [I-A-Q2-110] | I-A-Q2-110: log P (HCOOH): 2.69
42 | Nc1c(-c2cc(Cl)cc(Cl)c2)c(C(F)(F)F)nn1-c1ccc(C(=O)NCc2ccc(Cl)nc2)cc1 [I-A-Q2-148] | I-A-Q2-148: log P (HCOOH): 4.12
43 | Cc1cc(-n2nc(C(F)(F)F)c(-c3cc(Cl)cc(Cl)c3)c2N)ccc1C(=O)N(Cc1ccccn1)C1CC1 [I-A-Q2-111] | I-A-Q2-111: log P (HCOOH): 4.17
44 | Cc1cnc(CNC(=O)c2ccc(-n3nc(C(F)(F)F)c(-c4cc(Cl)cc(Cl)c4)c3N)cc2C)cn1 [I-A-Q2-265] | I-A-Q2-265: log P (HCOOH): 3.63
45 | Cc1cc(-n2nc(C(F)(F)F)c(-c3cc(Cl)cc(Cl)c3)c2N)ccc1C(=O)NCCc1ccccc1 [I-A-Q2-050] | I-A-Q2-050: log P (HCOOH): 4.64
46 | Cc1cc(-n2nc(C(F)(F)F)c(-c3ccccc3Cl)c2N)ccc1C(=O)NCC(F)(F)C(F)F [I-A-Q2-308] | I-A-Q2-308: log P (HCOOH): 3.23
47 | Cc1cc(-n2nc(C(F)(F)F)c(-c3cc(Cl)cc(Cl)c3)c2N)ccc1C(=O)NC(C)Cc1ccccn1 (stereo not shown) [I-A-Q2-065] | I-A-Q2-065: log P (HCOOH): 2.72
48 | CC(NC(=O)c1ccc(-n2nc(C(F)(F)F)c(-c3ccc(Cl)cc3)c2N)cc1)c1ccccn1 (stereo not shown) [I-A-Q2-165] | I-A-Q2-165: log P (HCOOH): 2.72

Same assay, conditions: HCOOH; Table 4, compounds of formula I-A-Q4

Row | Structure (SMILES) | log P (HCOOH)
49 | Nc1c(-c2cc(Cl)cc(Cl)c2)c(C(F)(F)F)nn1-c1ccc(C(=O)O)cc1 [I-A-Q4-087] | I-A-Q4-087: log P (HCOOH): 3.79
50 | CCCc1nn(-c2ccc(Cl)cn2)c(N)c1-c1ccc(Cl)cc1 [I-A-Q4-025] | I-A-Q4-025: log P (HCOOH): 5.51
51 | Nc1c(-c2ccc(F)cc2F)c(C(F)F)nn1-c1ccc(Cl)cn1 [I-A-Q4-056] | I-A-Q4-056: log P (HCOOH): 3.84
52 | Cc1nn(-c2ccc(Cl)cn2)c(N)c1-c1cc(F)ccc1F [I-A-Q4-033] | I-A-Q4-033: log P (HCOOH): 3.84
53 | COC(=O)c1ccc(-n2nc(C(F)(F)F)c(-c3cc(Cl)cc(Cl)c3)c2N)cc1C(F)(F)F [I-A-Q4-112] | I-A-Q4-112: log P (HCOOH): 5.21
54 | CCS(=O)(=O)c1ccc(-n2nc(C(F)(F)F)c(-c3cc(Cl)cc(Cl)c3)c2N)c(F)c1 [I-A-Q4-019] | I-A-Q4-019: log P (HCOOH): 3.94
55 | Cc1nn(-c2ccc(Cl)cn2)c(N)c1-c1c(F)cccc1Cl [I-A-Q4-031] | I-A-Q4-031: log P (HCOOH): 3.78
56 | Nc1c(-c2cc(Cl)cc(Cl)c2)c(C(F)(F)F)nn1-c1ccc(S(=O)(=O)NC2CC2)c(Br)c1 [I-A-Q4-111] | I-A-Q4-111: log P (HCOOH): 4.77
57 | Nc1c(-c2ccc(Cl)cc2)c(C(F)(F)F)nn1-c1ccc(C(=O)O)cc1 [I-A-Q4-088] | I-A-Q4-088: log P (HCOOH): 3.28

Same assay, conditions: HCOOH; compounds of the formula (IX), Table 11

Row | Structure (SMILES) | log P (HCOOH)
58 | CC(=O)Nc1[nH]nc(C(F)(F)F)c1-c1ccc(Cl)cc1Cl [IX-204] | IX-204: log P (HCOOH): 2.79
59 | Nc1[nH]nc(C(F)(F)F)c1-c1ccc(F)c(F)c1 [IX-201] | IX-201: log P (HCOOH): 2.33

Same assay, conditions: HPLC, reversed-phase C18, mobile phase with formic acid

Row | Structure (SMILES) | log P (HCOOH)
60 | CCCc1nn(-c2ccc(-n3cncn3)c(C#N)c2)c(N)c1-c1ccc(Cl)cc1 [I-A-Q1-065] | I-A-Q1-065: log P (HCOOH): 3.33
61 | N#Cc1cc(-n2nc(C(F)(F)F)c(-c3ccc(Cl)cc3Cl)c2N)ccc1-n1cncn1 [I-A-Q1-045] | I-A-Q1-045: log P (HCOOH): 2.64

From US20110190365A1, “Insecticidal 4-phenyl-1H-pyrazoles” (Bayer Crop Science AG, priority 2008, published 2011)
